PubChem BioAssay (NCI)
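Each compound was tested at five concentrations against cells in 96-well plates for 48 hours. TGI: total growth inhibition.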

Assays:
Test in all cases: NCI-60 cell line screen, 48 h
HT29 colon = system: HT29 colon
SNB-78 CNS = system: SNB-78 CNS
DMS 114 small cell lung = system: DMS 114 small cell lung
SNB-75 CNS = system: SNB-75 CNS
HCT-15 colon = system: HCT-15 colon
EKVX NSCLC = system: EKVX NSCLC
SK-OV-3 ovarian = system: SK-OV-3 ovarian
CCRF-CEM leukemia = system: CCRF-CEM leukemia
A498 renal = system: A498 renal
SK-MEL-5 melanoma = system: SK-MEL-5 melanoma
SF-539 CNS = system: SF-539 CNS
COLO 205 colon = system: COLO 205 colon
SR leukemia = system: SR leukemia
OVCAR-4 ovarian = system: OVCAR-4 ovarian
HOP-92 NSCLC = system: HOP-92 NSCLC
RXF 393 renal = system: RXF 393 renal
NCI-H226 lung = system: NCI-H226 lung
IGROV1 ovarian = system: IGROV1 ovarian
NCI-H23 lung = system: NCI-H23 lung
U251 CNS = system: U251 CNS
M19-MEL melanoma = system: M19-MEL melanoma
KM20L2 colon = system: KM20L2 colon
M14 melanoma = system: M14 melanoma
HOP-62 NSCLC = system: HOP-62 NSCLC
DMS 273 small cell lung = system: DMS 273 small cell lung
UACC-62 melanoma = system: UACC-62 melanoma
NCI-H522 lung = system: NCI-H522 lung
DLD-1 colon = system: DLD-1 colon
SN12C renal = system: SN12C renal
LXFL 529 NSCLC = system: LXFL 529 NSCLC
SW-620 colon = system: SW-620 colon
HCC-2998 colon = system: HCC-2998 colon
UO-31 renal = system: UO-31 renal
MALME-3M melanoma = system: MALME-3M melanoma
UACC-257 melanoma = system: UACC-257 melanoma
HCT-116 colon = system: HCT-116 colon
SF-295 CNS = system: SF-295 CNS
OVCAR-8 ovarian = system: OVCAR-8 ovarian
A549 NSCLC = system: A549 NSCLC
786-0 renal = system: 786-0 renal
XF 498 CNS = system: XF 498 CNS
SF-268 CNS = system: SF-268 CNS
MOLT-4 leukemia = system: MOLT-4 leukemia
HL-60(TB) leukemia = system: HL-60(TB) leukemia
SK-MEL-28 melanoma = system: SK-MEL-28 melanoma
HOP-18 NSCLC = system: HOP-18 NSCLC
ACHN renal = system: ACHN renal
SNB-19 CNS = system: SNB-19 CNS
RPMI-8226 leukemia = system: RPMI-8226 leukemia
K-562 leukemia = system: K-562 leukemia
KM12 colon = system: KM12 colon
OVCAR-5 ovarian = system: OVCAR-5 ovarian
TK-10 renal = system: TK-10 renal
OVCAR-3 ovarian = system: OVCAR-3 ovarian
RXF-631 renal = system: RXF-631 renal
NCI-H460 lung = system: NCI-H460 lung
SK-MEL-2 melanoma = system: SK-MEL-2 melanoma
LOX IMVI melanoma = system: LOX IMVI melanoma
CAKI-1 renal = system: CAKI-1 renal

CC(=O)OC1CC2(c3ccccc3)C(=O)c3ccccc3N2O1 (stereo not given)
TGI (HT29 colon): > 100 µM
TGI (SNB-78 CNS): > 100 µM
TGI (DMS 114 small cell lung): > 100 µM
TGI (SNB-75 CNS): > 100 µM
TGI (HCT-15 colon): > 100 µM
TGI (EKVX NSCLC): > 100 µM
TGI (SK-OV-3 ovarian): > 100 µM
TGI (CCRF-CEM leukemia): > 100 µM
TGI (A498 renal): > 100 µM
TGI (SK-MEL-5 melanoma): > 100 µM
TGI (SF-539 CNS): > 100 µM
TGI (COLO 205 colon): > 100 µM
TGI (SR leukemia): > 100 µM
TGI (OVCAR-4 ovarian): > 100 µM
TGI (HOP-92 NSCLC): > 100 µM
TGI (RXF 393 renal): > 100 µM
TGI (NCI-H226 lung): > 100 µM
TGI (IGROV1 ovarian): > 100 µM
TGI (NCI-H23 lung): > 100 µM
TGI (U251 CNS): > 100 µM
TGI (M19-MEL melanoma): > 100 µM
TGI (KM20L2 colon): > 100 µM
TGI (M14 melanoma): > 100 µM
TGI (HOP-62 NSCLC): > 100 µM
TGI (DMS 273 small cell lung): > 100 µM
TGI (UACC-62 melanoma): > 100 µM
TGI (NCI-H522 lung): > 100 µM
TGI (DLD-1 colon): > 100 µM
TGI (SN12C renal): > 100 µM
TGI (LXFL 529 NSCLC): > 100 µM
TGI (SW-620 colon): > 100 µM
TGI (HCC-2998 colon): > 100 µM
TGI (UO-31 renal): > 100 µM
TGI (MALME-3M melanoma): > 100 µM
TGI (UACC-257 melanoma): > 100 µM
TGI (HCT-116 colon): > 100 µM
TGI (SF-295 CNS): > 100 µM
TGI (OVCAR-8 ovarian): > 100 µM
TGI (A549 NSCLC): > 100 µM
TGI (786-0 renal): > 100 µM
TGI (XF 498 CNS): > 100 µM
TGI (SF-268 CNS): > 100 µM
TGI (MOLT-4 leukemia): > 100 µM
TGI (HL-60(TB) leukemia): > 100 µM
TGI (SK-MEL-28 melanoma): > 100 µM
TGI (HOP-18 NSCLC): > 100 µM
TGI (ACHN renal): > 100 µM
TGI (SNB-19 CNS): > 100 µM
TGI (RPMI-8226 leukemia): > 100 µM
TGI (K-562 leukemia): > 100 µM

COc1cc(C(C)c2cc3c(cc2OCCCCOc2cc4c(cc2C(C)c2cc(OC)c(OC)c(OC)c2)OCO4)OCO3)cc(OC)c1OC (stereo not given)
TGI (HT29 colon): > 100 µM
TGI (SNB-78 CNS): 64 µM
TGI (DMS 114 small cell lung): 45.1 µM
TGI (SNB-75 CNS): 69.7 µM
TGI (HCT-15 colon): > 100 µM
TGI (EKVX NSCLC): > 100 µM
TGI (SK-OV-3 ovarian): 91.8 µM
TGI (CCRF-CEM leukemia): > 100 µM
TGI (SK-MEL-5 melanoma): > 100 µM
TGI (SF-539 CNS): 55.4 µM
TGI (KM12 colon): > 100 µM
TGI (COLO 205 colon): > 100 µM
TGI (OVCAR-5 ovarian): > 100 µM
TGI (SR leukemia): > 100 µM
TGI (OVCAR-4 ovarian): > 100 µM
TGI (TK-10 renal): > 100 µM
TGI (RXF 393 renal): 73.3 µM
TGI (NCI-H226 lung): 80.6 µM
TGI (IGROV1 ovarian): > 100 µM
TGI (NCI-H23 lung): > 100 µM
TGI (U251 CNS): > 100 µM
TGI (M19-MEL melanoma): > 100 µM
TGI (KM20L2 colon): > 100 µM
TGI (M14 melanoma): 99.4 µM
TGI (HOP-62 NSCLC): > 100 µM
TGI (UACC-62 melanoma): > 100 µM
TGI (OVCAR-3 ovarian): 58.2 µM
TGI (DLD-1 colon): > 100 µM
TGI (RXF-631 renal): > 100 µM
TGI (SN12C renal): > 100 µM
TGI (LXFL 529 NSCLC): > 100 µM
TGI (SW-620 colon): 96 µM
TGI (HCC-2998 colon): > 100 µM
TGI (UO-31 renal): > 100 µM
TGI (MALME-3M melanoma): > 100 µM
TGI (UACC-257 melanoma): > 100 µM
TGI (HCT-116 colon): > 100 µM
TGI (NCI-H460 lung): > 100 µM
TGI (SK-MEL-2 melanoma): > 100 µM
TGI (SF-295 CNS): 91.3 µM
TGI (OVCAR-8 ovarian): > 100 µM
TGI (A549 NSCLC): > 100 µM
TGI (LOX IMVI melanoma): > 100 µM
TGI (786-0 renal): > 100 µM
TGI (CAKI-1 renal): > 100 µM
TGI (XF 498 CNS): 89.2 µM
TGI (SF-268 CNS): > 100 µM
TGI (MOLT-4 leukemia): > 100 µM
TGI (HL-60(TB) leukemia): > 100 µM
TGI (SK-MEL-28 melanoma): > 100 µM
TGI (ACHN renal): > 100 µM
TGI (SNB-19 CNS): > 100 µM
TGI (RPMI-8226 leukemia): > 100 µM
TGI (K-562 leukemia): > 100 µM

Clc1ccc(OC2CCO2)cc1Cl (stereo not given)
TGI (HT29 colon): > 100 µM
TGI (SNB-78 CNS): > 100 µM
TGI (DMS 114 small cell lung): > 100 µM
TGI (SNB-75 CNS): > 100 µM
TGI (HCT-15 colon): 36.8 µM
TGI (EKVX NSCLC): > 100 µM
TGI (SK-OV-3 ovarian): > 100 µM
TGI (CCRF-CEM leukemia): > 100 µM
TGI (A498 renal): > 100 µM
TGI (SK-MEL-5 melanoma): > 100 µM
TGI (SF-539 CNS): > 100 µM
TGI (KM12 colon): > 100 µM
TGI (COLO 205 colon): > 100 µM
TGI (OVCAR-5 ovarian): > 100 µM
TGI (OVCAR-4 ovarian): > 100 µM
TGI (TK-10 renal): > 100 µM
TGI (HOP-92 NSCLC): > 100 µM
TGI (NCI-H226 lung): > 100 µM
TGI (IGROV1 ovarian): > 100 µM
TGI (NCI-H23 lung): > 100 µM
TGI (U251 CNS): > 100 µM
TGI (M19-MEL melanoma): > 100 µM
TGI (KM20L2 colon): > 100 µM
TGI (M14 melanoma): > 100 µM
TGI (HOP-62 NSCLC): > 100 µM
TGI (DMS 273 small cell lung): > 100 µM
TGI (UACC-62 melanoma): > 100 µM
TGI (OVCAR-3 ovarian): > 100 µM
TGI (NCI-H522 lung): > 100 µM
TGI (DLD-1 colon): > 100 µM
TGI (RXF-631 renal): > 100 µM
TGI (SN12C renal): > 100 µM
TGI (LXFL 529 NSCLC): > 100 µM
TGI (SW-620 colon): 33.6 µM
TGI (HCC-2998 colon): > 100 µM
TGI (UO-31 renal): > 100 µM
TGI (MALME-3M melanoma): > 100 µM
TGI (UACC-257 melanoma): > 100 µM
TGI (HCT-116 colon): > 100 µM
TGI (NCI-H460 lung): > 100 µM
TGI (SF-295 CNS): > 100 µM
TGI (OVCAR-8 ovarian): > 100 µM
TGI (A549 NSCLC): > 100 µM
TGI (786-0 renal): > 100 µM
TGI (CAKI-1 renal): > 100 µM
TGI (SF-268 CNS): > 100 µM
TGI (MOLT-4 leukemia): > 100 µM
TGI (HL-60(TB) leukemia): > 100 µM
TGI (SK-MEL-28 melanoma): > 100 µM
TGI (HOP-18 NSCLC): > 100 µM
TGI (ACHN renal): > 100 µM
TGI (SNB-19 CNS): > 100 µM
TGI (RPMI-8226 leukemia): > 100 µM
TGI (K-562 leukemia): > 100 µM

COc1ccc(/C=N/NC(=O)NCCCN(C)C)cc1
TGI (HT29 colon): > 100 µM
TGI (SNB-78 CNS): > 100 µM
TGI (DMS 114 small cell lung): > 100 µM
TGI (HCT-15 colon): > 100 µM
TGI (SK-OV-3 ovarian): > 100 µM
TGI (CCRF-CEM leukemia): > 100 µM
TGI (A498 renal): > 100 µM
TGI (SK-MEL-5 melanoma): > 100 µM
TGI (SF-539 CNS): > 100 µM
TGI (KM12 colon): > 100 µM
TGI (TK-10 renal): > 100 µM
TGI (RXF 393 renal): > 100 µM
TGI (NCI-H226 lung): > 100 µM
TGI (IGROV1 ovarian): > 100 µM
TGI (NCI-H23 lung): > 100 µM
TGI (U251 CNS): > 100 µM
TGI (DMS 273 small cell lung): > 100 µM
TGI (UACC-62 melanoma): > 100 µM
TGI (OVCAR-3 ovarian): > 100 µM
TGI (NCI-H522 lung): > 100 µM
TGI (DLD-1 colon): > 100 µM
TGI (SN12C renal): > 100 µM
TGI (SW-620 colon): > 100 µM
TGI (UO-31 renal): > 100 µM
TGI (MALME-3M melanoma): > 100 µM
TGI (UACC-257 melanoma): > 100 µM
TGI (HCT-116 colon): > 100 µM
TGI (NCI-H460 lung): > 100 µM
TGI (SK-MEL-2 melanoma): > 100 µM
TGI (SF-295 CNS): > 100 µM
TGI (OVCAR-8 ovarian): > 100 µM
TGI (A549 NSCLC): > 100 µM
TGI (LOX IMVI melanoma): > 100 µM
TGI (XF 498 CNS): > 100 µM
TGI (SF-268 CNS): > 100 µM
TGI (MOLT-4 leukemia): > 100 µM
TGI (HL-60(TB) leukemia): > 100 µM
TGI (SK-MEL-28 melanoma): > 100 µM
TGI (HOP-18 NSCLC): > 100 µM
TGI (ACHN renal): > 100 µM
TGI (SNB-19 CNS): > 100 µM
TGI (K-562 leukemia): > 100 µM
